In ChEMBL document CHEMBL1201862, “PubChem BioAssay data set” (2004):
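Cultured in 96-well plates, cells were exposed to test compound for 48 hours across five concentrations. GI50 = concentration required for 50% inhibition of growth.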 The source made the active and inactive calls. No stated cut-off is given here; in the data, active = GI50 up to about 1.1 µM and inactive = higher.

Legend:
Experiment in all cases: NCI tumour cell line growth inhibition, 48 h
EKVX = tested on: EKVX
HCC 2998 = tested on: HCC 2998
HCT-116 = tested on: HCT-116
HOP-62 = tested on: HOP-62
HOP-92 = tested on: HOP-92
K562 = tested on: K562
M14 = tested on: M14
Malme-3M = tested on: Malme-3M
OVCAR-3 = tested on: OVCAR-3
RPMI-8226 = tested on: RPMI-8226
SK-MEL-5 = tested on: SK-MEL-5
TK-10 = tested on: TK-10
IGROV-1 = tested on: IGROV-1
MDA-MB-231 = tested on: MDA-MB-231
NCI-H226 = tested on: NCI-H226
UACC-62 = tested on: UACC-62

| Structure (SMILES) | GI50 (EKVX) | GI50 (HCC 2998) | GI50 (HCT-116) | GI50 (HOP-62) | GI50 (HOP-92) | GI50 (K562) | GI50 (M14) | GI50 (Malme-3M) | GI50 (OVCAR-3) | GI50 (RPMI-8226) | GI50 (SK-MEL-5) | GI50 (TK-10) | GI50 (IGROV-1) | GI50 (MDA-MB-231) | GI50 (NCI-H226) | GI50 (UACC-62) |
| --- | --- | --- | --- | --- | --- | --- | --- | --- | --- | --- | --- | --- | --- | --- | --- | --- |
| COc1cnc2oc3ccc(O)cc3c2c1-c1ccccc1 | > 100 µM (inactive) | 27.7 µM (inactive) | 15.2 µM (inactive) | 24 µM (inactive) | > 100 µM (inactive) | 22.1 µM (inactive) | 18.7 µM (inactive) | 40 µM (inactive) | 4.27 µM (inactive) | > 100 µM (inactive) | 61.9 µM (inactive) | > 100 µM (inactive) |  |  |  |  |
| Cc1ccc(O)c(C(c2cccc(C(c3cc(C)ccc3O)c3cc(C)ccc3O)c2)c2cc(C)ccc2O)c1 | 1.82 µM (inactive) | 1.86 µM (inactive) | 1.89 µM (inactive) | 2.06 µM (inactive) |  | 1.81 µM (inactive) | 1.88 µM (inactive) | 1.87 µM (inactive) | 2.21 µM (inactive) | 1.55 µM (inactive) | 2.44 µM (inactive) | 1.82 µM (inactive) | 1.56 µM (inactive) | 1.25 µM (inactive) | 1.77 µM (inactive) | 1.99 µM (inactive) |
| CC1=NC2(CCCCC2)N(Cl)C(=O)C1SC#N (stereo not drawn) | 17.5 µM (inactive) | 20.7 µM (inactive) |  | 22.9 µM (inactive) |  | 9.46 µM (inactive) | 16.2 µM (inactive) | 18.2 µM (inactive) | 19.6 µM (inactive) | > 10 µM (inactive) | 18.2 µM (inactive) | 20.3 µM (inactive) | 18.2 µM (inactive) | 17.6 µM (inactive) | 24 µM (inactive) | 13.4 µM (inactive) |
| C1=C[C@@H]2c3ccc4cnccc4c3NC[C@@H]2C1 | 16.8 µM (inactive) | > 100 µM (inactive) | > 100 µM (inactive) | > 100 µM (inactive) | 75.2 µM (inactive) | > 100 µM (inactive) | > 100 µM (inactive) | > 100 µM (inactive) | > 100 µM (inactive) | > 100 µM (inactive) | > 100 µM (inactive) | > 100 µM (inactive) | > 100 µM (inactive) |  | > 100 µM (inactive) | 58.2 µM (inactive) |
| CCOC(=O)c1cc(C2CCN(CC(C)CC)C2=S)c(C(=O)/C=C(/C)N)[nH]1 (stereo not drawn) | > 50 µM (inactive) |  | > 50 µM (inactive) | > 50 µM (inactive) |  | > 50 µM (inactive) | > 50 µM (inactive) | > 50 µM (inactive) | > 50 µM (inactive) | > 50 µM (inactive) | > 50 µM (inactive) | > 50 µM (inactive) | > 50 µM (inactive) | > 50 µM (inactive) | > 50 µM (inactive) | > 50 µM (inactive) |
| Cc1nn(C(=O)Cc2ccccc2)c2c1C(c1ccc(O)cc1)SC(=N)N2 (stereo not drawn) | > 100 µM (inactive) | > 100 µM (inactive) | > 100 µM (inactive) | > 100 µM (inactive) |  | > 100 µM (inactive) | > 100 µM (inactive) | > 100 µM (inactive) |  | > 100 µM (inactive) | > 100 µM (inactive) | > 100 µM (inactive) | > 100 µM (inactive) | > 100 µM (inactive) | > 100 µM (inactive) | > 100 µM (inactive) |
| CCOC(=O)c1c(SCC#N)n(-c2ccccc2)c(=S)n(-c2ccccc2)c1=O | 36.3 µM (inactive) |  | 43.9 µM (inactive) | 88.1 µM (inactive) | 43.9 µM (inactive) | 18.2 µM (inactive) | > 100 µM (inactive) | 39.2 µM (inactive) | 33.7 µM (inactive) | 35.5 µM (inactive) | 27 µM (inactive) | > 100 µM (inactive) | 30.8 µM (inactive) |  | 38.4 µM (inactive) | 23.3 µM (inactive) |
| CCN(CC)C(=O)Cn1c2c(c3ccccc31)CCCC2 | > 100 µM (inactive) | > 100 µM (inactive) | 40.9 µM (inactive) | > 100 µM (inactive) | > 100 µM (inactive) | 68.4 µM (inactive) | > 100 µM (inactive) | > 100 µM (inactive) | > 10 µM (inactive) | 56.8 µM (inactive) | 64 µM (inactive) | > 100 µM (inactive) | > 100 µM (inactive) |  |  | 99.8 µM (inactive) |
| O=C1C(=Cc2ccc(O)cc2)N=C(c2ccccc2)N1n1c(-c2ccccc2)nc2ccccc2c1=O | > 100 µM (inactive) | > 100 µM (inactive) | > 100 µM (inactive) | > 100 µM (inactive) |  | > 10 µM (inactive) | > 100 µM (inactive) | > 100 µM (inactive) |  | 46.1 µM (inactive) | > 100 µM (inactive) | > 100 µM (inactive) | > 100 µM (inactive) | 76.9 µM (inactive) | > 100 µM (inactive) | 97.1 µM (inactive) |
| CC(=O)c1ccc(-c2oc(-c3ccccc3)cc2-c2ccc3c(c2)OCO3)s1 | > 100 µM (inactive) | > 100 µM (inactive) | > 100 µM (inactive) | > 100 µM (inactive) | > 100 µM (inactive) | > 100 µM (inactive) | 65.3 µM (inactive) |  | > 100 µM (inactive) | > 100 µM (inactive) | > 100 µM (inactive) | > 100 µM (inactive) | > 100 µM (inactive) |  | > 100 µM (inactive) | > 100 µM (inactive) |
| CCn1c(SCC(=O)NNC(=S)Nc2ccc(Cl)cc2)nc2ccccc2c1=O | > 100 µM (inactive) | 49 µM (inactive) | 39.8 µM (inactive) | 79.1 µM (inactive) |  | 30.3 µM (inactive) | > 100 µM (inactive) | 42.2 µM (inactive) | 82 µM (inactive) | 24.5 µM (inactive) | > 100 µM (inactive) | 37.3 µM (inactive) | > 100 µM (inactive) | > 100 µM (inactive) | > 100 µM (inactive) | 35.2 µM (inactive) |
| Cc1cc(C)nc(NC(=S)Nc2cccc(Cl)c2)c1 | > 100 µM (inactive) | 65.5 µM (inactive) | > 100 µM (inactive) | > 75.7 µM (inactive) |  | > 100 µM (inactive) | > 100 µM (inactive) | > 100 µM (inactive) | > 100 µM (inactive) | > 100 µM (inactive) | > 10 µM (inactive) | > 35.9 µM (inactive) | 16.1 µM (inactive) | > 100 µM (inactive) | > 100 µM (inactive) | > 100 µM (inactive) |
| Nc1nc(Cl)cc(OCC2(CO)CCCC2)n1 | 91.4 µM (inactive) | > 100 µM (inactive) | > 100 µM (inactive) | > 100 µM (inactive) | > 100 µM (inactive) | > 100 µM (inactive) |  | > 100 µM (inactive) | > 100 µM (inactive) | > 100 µM (inactive) | > 100 µM (inactive) | > 100 µM (inactive) | > 100 µM (inactive) |  | > 100 µM (inactive) |  |
| NC(Cc1ccc(S(=O)(=O)O)cc1)C(=O)NC(Cc1ccc(S(=O)(=O)O)cc1)C(=O)O (stereo not drawn) | > 100 µM (inactive) | > 100 µM (inactive) | > 100 µM (inactive) | > 100 µM (inactive) |  | 0.0475 µM (active) | > 100 µM (inactive) | > 100 µM (inactive) | > 100 µM (inactive) | > 100 µM (inactive) | > 100 µM (inactive) | > 100 µM (inactive) | > 100 µM (inactive) | > 100 µM (inactive) | > 100 µM (inactive) | > 100 µM (inactive) |
